The values below come from ChEMBL document CHEMBL1201862, “PubChem BioAssay data set” (2004).

Active and inactive are the calls of the source. For most assays here, no stated cut-off is given here; in the data, actives have a measured IC50 and inactives only a lower limit.

Assay type in all cases: functional
Experiment [1] has as its target T1, Sentrin-specific protease 6 (Homo sapiens, UniProt Q9GZR1).
T1 sequence (Q9GZR1 whole entry): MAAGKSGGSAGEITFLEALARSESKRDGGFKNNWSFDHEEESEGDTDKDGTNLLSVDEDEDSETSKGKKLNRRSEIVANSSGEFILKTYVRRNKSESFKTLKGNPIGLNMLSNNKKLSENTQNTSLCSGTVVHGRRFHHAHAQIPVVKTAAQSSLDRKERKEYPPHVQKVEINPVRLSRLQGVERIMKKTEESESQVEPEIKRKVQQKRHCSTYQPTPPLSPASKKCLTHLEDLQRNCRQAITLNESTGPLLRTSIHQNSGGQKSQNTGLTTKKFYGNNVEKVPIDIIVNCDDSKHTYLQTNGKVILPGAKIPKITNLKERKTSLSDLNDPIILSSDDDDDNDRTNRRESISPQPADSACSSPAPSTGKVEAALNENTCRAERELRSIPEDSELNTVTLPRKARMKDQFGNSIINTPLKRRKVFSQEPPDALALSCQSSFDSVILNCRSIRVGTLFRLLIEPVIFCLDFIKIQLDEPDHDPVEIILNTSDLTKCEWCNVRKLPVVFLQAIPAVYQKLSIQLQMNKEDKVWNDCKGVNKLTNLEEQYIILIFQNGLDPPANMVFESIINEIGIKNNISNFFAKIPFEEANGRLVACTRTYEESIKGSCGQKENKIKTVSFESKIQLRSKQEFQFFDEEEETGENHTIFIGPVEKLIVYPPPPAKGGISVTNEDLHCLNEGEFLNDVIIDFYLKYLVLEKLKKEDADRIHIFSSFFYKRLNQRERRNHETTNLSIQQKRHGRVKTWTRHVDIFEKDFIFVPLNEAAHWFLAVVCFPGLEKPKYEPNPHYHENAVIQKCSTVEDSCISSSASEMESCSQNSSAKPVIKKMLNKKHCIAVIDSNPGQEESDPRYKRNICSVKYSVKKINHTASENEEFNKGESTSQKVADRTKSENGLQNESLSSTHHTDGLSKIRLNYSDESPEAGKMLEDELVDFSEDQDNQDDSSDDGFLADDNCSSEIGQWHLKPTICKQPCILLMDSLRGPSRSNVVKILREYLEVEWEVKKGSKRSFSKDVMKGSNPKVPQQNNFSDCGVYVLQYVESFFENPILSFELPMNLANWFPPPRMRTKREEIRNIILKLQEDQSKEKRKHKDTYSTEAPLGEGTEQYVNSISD

Another experiment deals with T2, Caspase-3 (Homo sapiens, UniProt P42574).
T2 sequence (P42574 whole entry): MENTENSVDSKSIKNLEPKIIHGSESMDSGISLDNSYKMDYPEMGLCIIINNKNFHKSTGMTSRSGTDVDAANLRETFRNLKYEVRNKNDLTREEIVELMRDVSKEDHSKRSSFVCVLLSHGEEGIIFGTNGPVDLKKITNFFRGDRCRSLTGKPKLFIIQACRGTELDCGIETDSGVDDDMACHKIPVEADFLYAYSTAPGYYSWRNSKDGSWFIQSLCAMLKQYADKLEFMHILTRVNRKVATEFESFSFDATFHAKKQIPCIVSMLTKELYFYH

In experiment [2] the target is T3, Sentrin-specific protease 8 (Homo sapiens, UniProt Q96LD8).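 Further: luminescence read-out of SENP8 inhibition, dose-response confirmation following an ultra-high-throughput screen.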
T3 sequence (Q96LD8 whole entry): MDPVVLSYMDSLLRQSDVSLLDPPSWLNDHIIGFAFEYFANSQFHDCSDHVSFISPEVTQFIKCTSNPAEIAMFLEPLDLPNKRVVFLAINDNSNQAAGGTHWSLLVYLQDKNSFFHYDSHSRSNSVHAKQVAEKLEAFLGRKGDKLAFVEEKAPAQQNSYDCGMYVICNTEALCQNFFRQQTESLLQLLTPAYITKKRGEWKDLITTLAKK

The target of experiment [3] is T4, Sentrin-specific protease 7 (Homo sapiens, UniProt Q9BQF6).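 Further: Luminescence-based dose-response confirmation of ultra-high-throughput screening hits, measuring inhibition of SENP7.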
T4 sequence (Q9BQF6 whole entry): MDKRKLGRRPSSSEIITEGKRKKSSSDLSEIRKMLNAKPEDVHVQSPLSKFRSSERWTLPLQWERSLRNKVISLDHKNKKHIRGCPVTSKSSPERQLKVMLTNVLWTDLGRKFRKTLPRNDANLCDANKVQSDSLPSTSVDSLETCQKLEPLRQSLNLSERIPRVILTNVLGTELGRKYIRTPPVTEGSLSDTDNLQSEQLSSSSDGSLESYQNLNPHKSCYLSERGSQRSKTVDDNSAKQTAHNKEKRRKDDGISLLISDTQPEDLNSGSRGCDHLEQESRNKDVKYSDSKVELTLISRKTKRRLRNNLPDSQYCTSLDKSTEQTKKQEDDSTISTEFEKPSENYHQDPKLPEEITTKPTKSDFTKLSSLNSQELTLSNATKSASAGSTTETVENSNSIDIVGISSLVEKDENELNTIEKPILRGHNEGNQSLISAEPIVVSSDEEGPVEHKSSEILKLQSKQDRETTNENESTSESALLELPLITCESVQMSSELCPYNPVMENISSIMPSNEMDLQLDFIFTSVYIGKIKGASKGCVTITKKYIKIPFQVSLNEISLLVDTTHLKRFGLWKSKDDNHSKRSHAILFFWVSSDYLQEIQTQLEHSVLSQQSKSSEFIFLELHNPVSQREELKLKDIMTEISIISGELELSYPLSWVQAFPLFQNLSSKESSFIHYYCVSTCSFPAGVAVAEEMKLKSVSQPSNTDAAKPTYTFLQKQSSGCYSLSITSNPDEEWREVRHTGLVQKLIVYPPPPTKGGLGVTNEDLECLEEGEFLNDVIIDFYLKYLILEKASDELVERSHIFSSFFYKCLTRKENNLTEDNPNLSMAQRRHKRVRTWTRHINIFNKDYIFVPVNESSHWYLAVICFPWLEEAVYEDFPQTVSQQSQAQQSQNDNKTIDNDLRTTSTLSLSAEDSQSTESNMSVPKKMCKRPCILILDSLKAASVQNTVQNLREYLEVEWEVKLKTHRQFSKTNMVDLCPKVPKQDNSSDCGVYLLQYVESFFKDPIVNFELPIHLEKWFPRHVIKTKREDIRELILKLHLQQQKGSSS

Experiment [4] concerns the target Dual specificity tyrosine-phosphorylation-regulated kinase 1B (Homo sapiens, UniProt Q9Y463). The experiment is described as follows: Navigating the Kinome. Panel member name: DYRK1B.
In experiment [5] the target is T1, Sentrin-specific protease 6. The experiment is described as follows: SAR Analysis of small molecule inhibitors of Sentrin-specific protease 6 (SENP6) using a Luminescent assay. [Related pubchem assays (depositor defined):AID2582, AID2599].

Sequence of Dual specificity tyrosine-phosphorylation-regulated kinase 1B (Q9Y463 whole entry): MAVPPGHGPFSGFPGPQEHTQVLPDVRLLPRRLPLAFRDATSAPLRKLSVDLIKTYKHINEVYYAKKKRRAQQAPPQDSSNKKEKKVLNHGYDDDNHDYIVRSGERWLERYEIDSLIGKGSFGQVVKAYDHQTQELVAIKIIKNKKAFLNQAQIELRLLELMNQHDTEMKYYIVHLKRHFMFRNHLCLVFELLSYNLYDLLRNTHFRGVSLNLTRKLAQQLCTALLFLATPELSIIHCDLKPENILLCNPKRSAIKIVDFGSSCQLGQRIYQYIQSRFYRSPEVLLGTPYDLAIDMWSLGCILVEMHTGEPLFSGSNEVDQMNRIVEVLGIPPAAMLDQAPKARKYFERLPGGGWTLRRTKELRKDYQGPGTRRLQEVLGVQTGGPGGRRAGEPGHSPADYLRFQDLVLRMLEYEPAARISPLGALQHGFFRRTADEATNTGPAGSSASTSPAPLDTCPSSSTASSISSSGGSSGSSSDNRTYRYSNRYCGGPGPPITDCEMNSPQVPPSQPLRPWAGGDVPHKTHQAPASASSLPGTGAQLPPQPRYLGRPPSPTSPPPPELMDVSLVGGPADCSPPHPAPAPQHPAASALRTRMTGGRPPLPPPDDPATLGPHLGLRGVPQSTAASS

Turning to `O=Nc1c(-c2c(O)[nH]c3cc(Br)ccc23)[nH]c2ccccc12`, the IC50 in experiment [1] is > 100 µM (inactive); on Caspase-3, 64.3 µM (active); in experiment [2], > 100 µM (inactive); in experiment [3], 5.6 µM (active).

Consider `COc1cccc(C(C)NC(=O)c2ccc(-c3ccncc3)s2)c1` (stereo not given), for which the Ki in experiment [4] was > 2.51 µM (inactive).

For the molecule `Cc1ccc(NC(=O)COc2cccc(/C=C3\SC(=S)N(CCC(=O)O)C3=O)c2)cc1Cl`, the IC50 in experiment [5] was 5.06 µM (active); in experiment [1], > 100 µM (inactive); on Caspase-3, 70 µM (active); in experiment [2], 3.14 µM (active); in experiment [3] it was 18.3 µM (active).

A word on the IC50: it is the midpoint of a concentration-inhibition curve. The term Ki denotes the equilibrium dissociation constant of an inhibitor or competing ligand from its target.
